Patent publication US20250019350A1, “SYNTHESIS OF THE PROSTATE SPECIFIC MEMBRANE ANTIGEN (PSMA) RADIOLABELED INHIBITOR [18F]DCFPYL” (Progenics Pharmaceuticals, Inc, priority 2023, published 2025)

Experiments:
[1] = @ 10 hr; ascorbic acid at 10 mg/mL (Fawdry 2007); cited from earlier work
[2] = Retention/recovery of [19F]DCFPyL on the HLB solvent exchange cartridge as a function of pH (load, wash, product samples); assay type: physicochemical
Method: The goal of this study was to characterize the impact of pH on the retention of [^18F]DCFPyL on the HLB solvent exchange cartridge. […] The pH of one solution was adjusted to 2 and a second to 4 by adding 1N HCl. A third solution was used without adjusting its native pH of 7.2. Using a BD syringe, 10 mL of each solution was spiked with [^19F]DCFPyL (50 μg) by adding 0.5 mL of a 100 μg/mL stock solution. Each spiked solution was loaded onto a HLB cartridge at a rate of approximately 2 mL/min. […] The eluent from each HLB cartridge was individually collected and identified as the “wash solution.” Each HLB cartridge was then individually eluted with 1 mL of ethanol, the samples collected and are identified as the “product sample.” The load solution and wash solution samples were analyzed using a drug product chemical impurity assay after a 1 to 10 mL dilution with saline, while the ethanolic product samples were analyzed following a 0.5 to 10 dilution with saline.
The goal of this study was to characterize the impact of pH on the retention of ^18F-DCFPyL on the HLB solvent exchange cartridge. […] The pH of one solution was adjusted to 2 and a second to 4 by adding 1N HCl. A third solution was used without adjusting its native pH of 7.2. At this pH the solution will be mainly sodium ascorbate. Using a BD syringe, 10 mL of each solution was spiked with ^19F-DCFPyL (50 μg) by adding 0.5 mL of a 100 μg/mL stock solution. Each spiked solution was loaded onto an HLB cartridge at a rate of approximately 2 mL/min and the solution collected after the HLB column is identified as the load solution. […] Each HLB cartridge was then individually eluted with 1 mL of ethanol, the solution collected after the HLB column is identified as the product sample. The load solution and wash solution samples were analyzed using the drug product chemical impurity assay after a 1 to 10 mL dilution with saline, while the ethanolic product samples were analyzed following a 0.5 to 10 mL dilution with saline.

[3] = cited from earlier work
[4] = HPLC/UV (264 nm) chemical impurity assay; ascorbic acid related impurity; assay type: physicochemical; conditions: 5 mg/mL, pH 6 ascorbic acid solution with free 18F (129 mCi/mL)
Method: Analytical HPLC method was used. The method employs UV detection at 264 nm for chemical impurities, and an Eckert & Ziegler model B-FC-1000 gamma detector for radiochemical assays.
Since the peak has not been previously observed in preparations in the absence of ascorbic acid it is likely ascorbic acid related and was further investigated. A decayed sample from the lot produced was analyzed further and confirmed the presence of the peak, FIG. 35. […] The sample was assayed for chemical impurities at T=0, 4, 10 and 24 hours when held inverted at ambient conditions. […] The impurity only formed with radioactivity exposure but not when stored in light or dark at ambient conditions (see FIG. 37).

[5] = HLB pH 2 Product, first Ethanol elution
[6] = HLB pH 2 Product, second Ethanol elution
[7] = HLB pH 2 Product, third Ethanol elution

Structure (SMILES): OC[C@H]1O[C@@H](O)[C@H]([18F])[C@@H](O)[C@@H]1O [FDG]
- de-fluorination [1]: less than 2%

Structure (SMILES): O=C(O)CC[C@H](NC(=O)N[C@@H](CCCCNC(=O)c1ccc(F)nc1)C(=O)O)C(=O)O [Lot 19F-DCFPyL]
- retention by the HLB cartridge ([2]; 10 mg/mL ascorbic acid, pH 7.2): not meaningfully retained
- 19F-DCFPyL recovered (%) ([2]; HLB Saline pH 7 Rinse): 0.0%
- μg of 19F-DCFPyL recovered ([2]; HLB Saline pH 7 Rinse): Not Detected
- 19F-DCFPyL recovered (%) ([2]; HLB pH 2 Load): 0.0%
- μg of 19F-DCFPyL recovered ([2]; HLB pH 2 Load): Not Detected
- 19F-DCFPyL recovered (%) [2, 5]: 69.5%
- μg of 19F-DCFPyL recovered [2, 5]: 35.423 µg
- 19F-DCFPyL recovered (%) [2, 6]: 21.5%
- μg of 19F-DCFPyL recovered [2, 6]: 10.946 µg
- 19F-DCFPyL recovered (%) [2, 7]: 7.1%
- μg of 19F-DCFPyL recovered [2, 7]: 3.629 µg
- 19F-DCFPyL recovered (%) ([2]; HLB pH 2 Rinse): 0.0%
- μg of 19F-DCFPyL recovered ([2]; HLB pH 2 Rinse): Not Detected
- 19F-DCFPyL recovered (%) ([2]; HLB pH 4 Load): 22.0%
- μg of 19F-DCFPyL recovered ([2]; HLB pH 4 Load): 10.504 µg
- 19F-DCFPyL recovered (%) ([2]; HLB pH 4 Product): 57.7%
- μg of 19F-DCFPyL recovered ([2]; HLB pH 4 Product): 27.989 µg
- 19F-DCFPyL recovered (%) ([2]; HLB pH 4 Rinse): 0.0%
- μg of 19F-DCFPyL recovered ([2]; HLB pH 4 Rinse): Not Detected
- 19F-DCFPyL recovered (%) ([2]; HLB pH 7 Load): 87.4%
- μg of 19F-DCFPyL recovered ([2]; HLB pH 7 Load): 38.239 µg
- 19F-DCFPyL recovered (%) ([2]; HLB pH 7 Product): 0.0%
- μg of 19F-DCFPyL recovered ([2]; HLB pH 7 Product): Not Detected
- 19F-DCFPyL in the load or wash samples ([2]; pH 2): not detected
- μg of 19F-DCFPyL recovered ([2]; pH 2 Control): 50.976 µg
- 19F-DCFPyL in the product sample, % of the total amount recovered from all samples ([2]; pH 4): approximately 68%
- 19F-DCFPyL recovered in the load sample ([2]; pH 4): approximately 31%
- 19F-DCFPyL recovered in the load sample (mass) ([2]; pH 4): < 1 µg
- μg of 19F-DCFPyL recovered ([2]; pH 4 Control): 47.665 µg
- μg of 19F-DCFPyL recovered ([2]; pH 7 Control): 43.759 µg
- 19F-DCFPyL recovered in the wash samples ([2]; pH 7.2): 3.8 µg/mL

Structure (SMILES): O=C1O[C@H]([C@@H](O)CO)C(O)=C1O [ascorbic acid]
- pKa [3]: about 4.2
- 4.6 min RT peak (HPLC UV) ([4]; T = 0 hours, ambient): not present
- 4.6 min RT peak (HPLC UV), approximate concentration ([4]; T = 24 hours, relative response factor of 1 to [19F]-DCFPyL standard): ~1.75 µg/mL
